Data: publication PMC7998700, “Mycobacterial Epoxide Hydrolase EphD Is Inhibited by Urea and Thiourea Derivatives” (International Journal of Molecular Sciences, 2021)

What was measured:
[1] = molecular target: T1, EphF (Mycobacterium tuberculosis, UniProt P96811); test: radio-TLC epoxide hydrolase assay, E. coli lysate supernatant; type: biochemical; settings: substrate [14C]-9,10-cis-epoxystearic acid; 50 mM Tris-HCl pH 7.5, 37 °C, 15 min; without EthA; 2% DMSO
[2] = molecular target: T2, EphD (Mycobacterium tuberculosis, UniProt P9WGS3); test: as above; type: biochemical; settings: substrate [14C]-9,10-cis-epoxystearic acid; 50 mM Tris-HCl pH 7.5, 37 °C, 15 min; without EthA; 2% DMSO
[3] = molecular target: T2, EphD
[4] = molecular target: EphB (Mycobacterium tuberculosis, UniProt I6YC03); test: radio-TLC substrate conversion to diol, E. coli lysate supernatant; type: biochemical; settings: 50 mM Tris-HCl pH 7.5, 37 °C; labelled compound
[5] = molecular target: EphE (Mycobacterium tuberculosis, UniProt I6YCQ4)
[6] = molecular target: T1, EphF
[7] = molecular target: EphA (Mycobacterium tuberculosis, UniProt I6YGS0)
[8] = molecular target: EphG (Mycobacterium tuberculosis, UniProt O33283)
EphG, sequence (O33283 whole entry): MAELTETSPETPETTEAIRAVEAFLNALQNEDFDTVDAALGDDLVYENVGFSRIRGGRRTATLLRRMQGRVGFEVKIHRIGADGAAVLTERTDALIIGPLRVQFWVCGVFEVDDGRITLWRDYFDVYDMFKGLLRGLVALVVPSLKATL

T2 sequence (P9WGS3 whole entry): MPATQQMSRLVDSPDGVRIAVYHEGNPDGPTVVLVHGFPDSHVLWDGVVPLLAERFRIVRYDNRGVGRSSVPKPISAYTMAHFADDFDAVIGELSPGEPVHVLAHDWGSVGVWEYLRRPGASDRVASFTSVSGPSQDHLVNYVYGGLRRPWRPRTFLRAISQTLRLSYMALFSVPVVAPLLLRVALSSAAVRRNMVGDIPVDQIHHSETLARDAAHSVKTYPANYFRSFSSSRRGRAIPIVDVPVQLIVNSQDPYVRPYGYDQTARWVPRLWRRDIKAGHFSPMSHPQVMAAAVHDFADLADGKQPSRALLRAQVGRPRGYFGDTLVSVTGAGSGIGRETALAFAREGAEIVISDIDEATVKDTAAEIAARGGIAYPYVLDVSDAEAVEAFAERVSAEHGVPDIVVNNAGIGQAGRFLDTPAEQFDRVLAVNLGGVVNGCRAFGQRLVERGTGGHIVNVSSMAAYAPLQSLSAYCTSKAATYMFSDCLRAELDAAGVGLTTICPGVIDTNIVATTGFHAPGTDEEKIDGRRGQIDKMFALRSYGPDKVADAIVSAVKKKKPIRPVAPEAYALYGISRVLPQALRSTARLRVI
T1 sequence (P96811 entry or part of it): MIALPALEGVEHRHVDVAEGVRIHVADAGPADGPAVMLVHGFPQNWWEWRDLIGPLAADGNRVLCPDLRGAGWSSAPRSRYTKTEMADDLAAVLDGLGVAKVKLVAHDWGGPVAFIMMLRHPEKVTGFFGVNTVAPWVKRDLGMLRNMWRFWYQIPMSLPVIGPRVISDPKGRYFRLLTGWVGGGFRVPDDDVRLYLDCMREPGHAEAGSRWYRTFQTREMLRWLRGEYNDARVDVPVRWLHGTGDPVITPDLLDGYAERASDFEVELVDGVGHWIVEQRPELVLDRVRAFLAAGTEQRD
EphE, sequence (I6YCQ4 entry or part of it): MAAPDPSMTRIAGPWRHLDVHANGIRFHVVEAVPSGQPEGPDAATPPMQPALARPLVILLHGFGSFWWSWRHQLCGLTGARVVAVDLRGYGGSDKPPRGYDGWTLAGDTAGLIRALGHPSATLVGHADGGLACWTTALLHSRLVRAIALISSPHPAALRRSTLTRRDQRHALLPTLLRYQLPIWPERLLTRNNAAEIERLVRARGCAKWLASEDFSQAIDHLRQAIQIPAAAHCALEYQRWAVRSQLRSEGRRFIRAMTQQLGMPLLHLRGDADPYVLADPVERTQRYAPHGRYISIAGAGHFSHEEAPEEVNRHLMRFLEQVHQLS
EphB, sequence (I6YC03 whole entry): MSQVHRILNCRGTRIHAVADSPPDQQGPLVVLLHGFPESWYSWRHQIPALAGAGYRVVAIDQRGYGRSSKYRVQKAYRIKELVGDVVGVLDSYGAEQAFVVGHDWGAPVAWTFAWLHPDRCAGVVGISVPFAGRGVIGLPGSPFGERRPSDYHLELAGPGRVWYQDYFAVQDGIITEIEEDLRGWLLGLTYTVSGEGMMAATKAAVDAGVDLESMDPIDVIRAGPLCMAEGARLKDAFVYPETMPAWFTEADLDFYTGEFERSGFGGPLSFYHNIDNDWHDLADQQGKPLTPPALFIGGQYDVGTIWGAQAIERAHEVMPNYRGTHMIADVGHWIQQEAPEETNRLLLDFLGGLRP
EphA, sequence (I6YGS0 whole entry): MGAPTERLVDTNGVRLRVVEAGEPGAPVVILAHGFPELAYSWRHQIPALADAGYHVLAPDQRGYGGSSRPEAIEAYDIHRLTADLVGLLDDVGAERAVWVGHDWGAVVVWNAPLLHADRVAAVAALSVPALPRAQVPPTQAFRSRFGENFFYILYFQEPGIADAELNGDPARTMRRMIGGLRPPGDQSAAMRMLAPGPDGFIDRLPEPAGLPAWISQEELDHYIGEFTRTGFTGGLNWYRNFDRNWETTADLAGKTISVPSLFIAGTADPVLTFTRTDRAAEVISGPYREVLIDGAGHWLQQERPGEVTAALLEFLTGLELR

Structure (SMILES)	% inhibition at 10 μg/mL [1]	% inhibition at 10 μg/mL [2]	radio-TLC substrate conversion to diol, E. coli lysate supernatant [3]	radio-TLC substrate conversion to diol, E. coli lysate supernatant [4]	radio-TLC substrate conversion to diol, E. coli lysate supernatant [5]	radio-TLC substrate conversion to diol, E. coli lysate supernatant [6]	radio-TLC substrate conversion to diol, E. coli lysate supernatant [7]	radio-TLC substrate conversion to diol, E. coli lysate supernatant [8]
CC(C)CCOc1ccc(NC(=S)Nc2ccc(OCCC(C)C)cc2)cc1 [ISO, 4,4′-diisoamyloxydiphenylthiourea]	The activities of EphD and EphF are inhibited by ISO	The activities of EphD and EphF are inhibited by ISO	–	–	–	–	–	–
CCCCCCCC[C@H]1O[C@H]1CCCCCCCC(=O)O [9,10-cis-epoxystearic acid]	–	–	The EH activity in each reaction was expressed as a substrate conversion percentage	The EH activity in each reaction was expressed as a substrate conversion percentage	The EH activity in each reaction was expressed as a substrate conversion percentage	The EH activity in each reaction was expressed as a substrate conversion percentage	The EH activity in each reaction was expressed as a substrate conversion percentage	The EH activity in each reaction was expressed as a substrate conversion percentage
